Results as given in patent US6500835B2, “Preventive or therapeutic drugs for fibrosis containing chymase inhibitors as the active ingredient” (Suntory Limited, priority 2000, dated 2002).
Counter-ions that a name gives are not always drawn.

Legend:
Human heart chymase = molecular target: T1, Human heart chymase (Homo sapiens, UniProt P23946); experiment: Measurement of chymase inhibitory activity (Suc-Ala-Ala-Pro-Phe-MCA substrate); assay type: biochemical; conditions: 30° C., 10 min preincubation
T1 construct: Human heart chymase was purified according to the method of Urata et al; from tissue; host or cells: human heart
T1 sequence (P23946 22-247): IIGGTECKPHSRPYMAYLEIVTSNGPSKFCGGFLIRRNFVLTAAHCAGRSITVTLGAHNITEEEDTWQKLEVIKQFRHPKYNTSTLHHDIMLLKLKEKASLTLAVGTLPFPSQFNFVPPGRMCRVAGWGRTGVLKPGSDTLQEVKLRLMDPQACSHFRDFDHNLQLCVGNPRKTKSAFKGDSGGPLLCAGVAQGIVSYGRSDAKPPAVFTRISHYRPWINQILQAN
Method: Human heart chymase was purified according to the method of Urata et al. (J. Biol. Chem., 1990, 265, 22348). The inhibitory activity off the compound of the present invention was determined as follows. Purified enzyme was diluted with 0.1M tris HCl buffer (pH=7.5), 1M sodium chloride, and 0.01% Triton X-100 to obtain an enzyme solution having appropriate concentrations. Suc-Ala-Ala-Pro-Phe-MCA (Peptide Institute Inc.) was dissolved in 10 mM dimethyl sulfoxide (hereinafter referred to as DMSO) and diluted 20-fold with 0.1 M Tris-HCl buffer (pH 7.5) containing 1 M sodium chloride and 0.01% Triton X-100 to an appropriate concentration to prepare substrate solution.
5 μl of the test sample in DMSO was added to 75 μl of the enzyme solution and preincubated at 30° C. for 10 minutes. Then, 20 μl of the subs rate solution was added to the test sample-enzyme mixture, and incubated at 30° C. Ten minutes later, 50 μl of 30% acetic acid was added to stop the enzymatic reaction, and the amount of AMC formed was determined using a fluorophotometer. At the same time, 5 μl of DMSO in stead of the test sample was added and reacted simultaneously as a control. The inhibitory activity to human chymase was calculated based on the value of the control, and then the inhibition percentage and the 50% inhibition concentration (IC50) were determined.

Tsk mice = experiment: Tsk mice, model for scleroderma: thickness of subcutaneous fibrous layer; assay type: in vivo; conditions: 50 mg/kg/day i.p. once a day for 2 weeks, 13-week old Tsk mice
Method: (§1) Collagen content, thickness of subcutaneous fibrous layer, mast cell number, chymase activity and chymase mRNA were measured in the skin of Tsk mice (Rheum. Dis. Clin. North Am. 16, 153, 1990), and compared with the control mice (pallid mice) at the ages of 5, 10, and 20 weeks (n=6). The collagen content was determined by measuring hydroxyproline, the marker for collagen, using HPLC, whereas fibrous layer thickness was determined by histological analysis with Azan staining followed by measuring the area of the fibrous layer using an image analysis system. The density of mast cells was calculated by counting the number of cells with stained granules by toluidine blue staining. Chymase was extracted from the skin according to the method described previously (Arch. Dermatol. Res. 290, 553, 1998), and the activity determined as described in Example 2. The mRNA for the skin chymase (MMCP-4) was measured only at 10 weeks of age by competitive RT-PCR method (Biotechniques 21, 268, 1996).
13-week old Tsk mice (n=5) were intra peritoneally administered a chymase inhibitor (Compound 18) in a dosage of 50 mg/kg/day once a day every day for 2 weeks. Five hours after the final administration, the degree of hypertrophy of the subcutaneous fibrous layer and the skin-chymase activity were measured and compared with the values of the group administered saline. […]

chymase = experiment: Effects of chymase inhibitor on chymase activity in tissues of mice after intraperitoneal administration; assay type: in vivo; conditions: ICR mice, 12 and 24 hours after administration
Method: (§2) A chymase inhibitor (Compound 18) was administered intraperitoneally in ICR mice (8 weeks old, n=3). After 12 hours and 24 hours, the chymase was extracted from the small intestines, tongues, back skins, front legs, and rear legs of the mice and the enzymatic activity thereof was determined. The chymase was extracted using a 10 mM phosphate buffer including 2M KCl and 0.1% polyethylene octylphenyl ether (Triton X-100) from the tissues. Chymase activity was determined, by measuring the rate of hydrolysis of synthesized substrate Suc-Phe-Pro-Phe-p-nitroanilide. Saline was administered in 24 hours in control groups.

skin chymase = molecular target: T2, skin chymase (Mus musculus, UniProt P21812); experiment: Tsk mice, model for scleroderma: skin chymase activity; assay type: in vivo; conditions: 50 mg/kg/day i.p. once a day for 2 weeks, 13-week old Tsk mice, 5 hours after final administration
T2 construct: Chymase was extracted from the skin according to the method described previously; from tissue; host or cells: skin of Tsk mice
T2 sequence (P21812 21-246): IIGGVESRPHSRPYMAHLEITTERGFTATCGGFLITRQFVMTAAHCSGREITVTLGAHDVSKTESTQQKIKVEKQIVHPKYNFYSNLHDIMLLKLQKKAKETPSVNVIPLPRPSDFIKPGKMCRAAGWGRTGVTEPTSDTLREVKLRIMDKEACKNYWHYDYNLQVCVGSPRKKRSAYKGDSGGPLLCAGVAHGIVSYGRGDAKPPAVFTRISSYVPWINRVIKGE
Method: as §2
as §1, with “Chymase was extracted from the skin according to the method described previously (Arch. Dermatol. Res. 290, 553, 1998), and the activity determined as described in Example 2. The mRNA for the skin chymase (MMCP-4) was measured only at 10 weeks of age by competitive RT-PCR method (Biotechniques 21, 268, 1996).” left out

[1] = tested on: bleomycin-induced pulmonary fibrosis in mice; experiment: Bleomycin-induced pulmonary fibrosis model: effect of chymase inhibitor on lung hydroxyproline; assay type: in vivo, ICR mice; conditions: five days a week over 2 weeks, bleomycin 0.08 mg
Method: (§3) Pulmonary fibrosis was induced by intratracheal administration of bleomycin (Nippon Kayaku) to 10 week old male ICR mice (Charles River Japan) under anesthesia (n=10). That is, bleomycin (0.04 mg or 0.08 mg) was suspended in 50 μl of saline and administered into the airways using a 100 μl syringe (made by Hamilton Co.) Two weeks after the administration of bleomycin, the lungs were excised and the amount of hydroxyproline, an indicator of tissue collagen, was assayed according to the method as described previously (Anal. Biochem. 19, 249, 1967). Further, the amount of hydroxyproline was expressed as an amount per lung. Further, mice similarly administered saline instead of bleomycin were used as a control (n=10).
Pulmonary fibrosis was induced in accordance with the method described in Example 5 (n=10) and the amount of hydroxyproline in pulmonary tissue was assayed in the same way as in Example 5 in order to investigate the effect of a chymase inhibitor (Compound 34) on pulmonary fibrosis. Further, the chymase inhibitor was suspended in saline containing 0.5% hydroxypropyl cellulose (HPC/saline) and administered intraperitoneally at a dose of 10 mg/kg or 50 mg/kg once a day for five days a week over 2 weeks, starting immediately after the bleomycin administration. […]

pulmonary chymase = experiment: Change in pulmonary chymase activity after intratracheal bleomycin; assay type: in vivo, mice; conditions: bleomycin 0.08 mg intratracheal, 2 weeks after administration
ICR mice = experiment: Change in hydroxyproline content in lung after intratracheal bleomycin; assay type: in vivo; conditions: 2 weeks after administration
Method: as §3

Row | Compound | IC50 (Human heart chymase) [µM] | also measured
1 | O=C(O)C1Oc2ccc(S(=O)(=O)n3c(=O)[nH]c4cc(Cl)ccc4c3=O)cc2NC1=O (racemic) [Compound 29, (±)-6-[(7-chloro-2,4(1H,3H)-quinazolinedion-3-yl)sulfonyl]-3-oxo-1,4-benzoxazine-2-carboxylic acid] | 1.7 | –
2 | O=c1[nH]c2cc(Cl)ccc2c(=O)n1S(=O)(=O)c1cccc(O)c1 [Compound 1, 7-chloro-3-(3-hydroxybenzenesulfonyl)-2,4(1H,3H)-quinazolinedione] | 0.36 | –
3 | Nc1cccc(S(=O)(=O)n2c(=O)[nH]c3cc(Cl)ccc3c2=O)c1 [Compound 12, 3-(3-aminobenzenesulfonyl)-7-chloro-2,4(1H,3H)-quinazolinedione] | 0.44 | –
4 | O=C(O)c1ccc(S(=O)(=O)n2c(=O)[nH]c3cc(Cl)ccc3c2=O)cc1O [Compound 16, 4-[(7-chloro-2,4(1H,3H)-quinazolinedion-3-yl)sulfonyl]salicylic acid monosodium salt] | 0.84 | –
5 | Nc1cc(S(=O)(=O)n2c(=O)[nH]c3cc(Cl)ccc3c2=O)ccc1C(=O)O [Compound 17, 4-[(7-chloro-2,4(1H,3H)-quinazolinedion-3-yl)sulfonyl]anthranilic acid] | 0.14 | –
6 | O=C(O)c1cc(S(=O)(=O)n2c(=O)[nH]c3cc(Cl)ccc3c2=O)ccc1O [Compound 21, 5-[(7-chloro-2,4(1H,3H)-quinazolinedion-3-yl)sulfonyl]salicylic acid] | 0.34 | –
7 | COc1ccc(S(=O)(=O)n2c(=O)[nH]c3cc(Cl)ccc3c2=O)cc1NC(C)=O [Compound 22] | 0.3 | –
8 | COc1ccc(S(=O)(=O)n2c(=O)[nH]c3cc(Cl)ccc3c2=O)cc1NS(C)(=O)=O [Compound 24, 7-chloro-3-(4-methoxy-3-methylsulfonylaminobenzenesulfonyl)-2,4(1H,3H)-quinazolinedione] | 0.32 | –
9 | Nc1cc(S(=O)(=O)n2c(=O)[nH]c3ccc(Cl)cc3c2=O)ccc1C(=O)O [Compound 32, 4-[(6-chloro-2,4(1H,3H)-quinazolinedion-3-yl)sulfonyl]anthranilic acid] | 1.5 | –
10 | bleomycin | – | pulmonary chymase activity relative to the group administered saline (pulmonary chymase): about 4.5 times; hydroxyproline content in the lung as compared with the saline group (ICR mice; bleomycin 0.04 mg/mouse intratracheal): 1.15 fold; hydroxyproline content in the lung as compared with the saline group (ICR mice; bleomycin 0.08 mg/mouse intratracheal): 1.25 fold

Further compounds by falling IC50 (Human heart chymase), results first:

Row | IC50 (Human heart chymase) [µM] | Compound | also measured
11 | 4 | COc1ccc2c(=O)n(S(=O)(=O)c3ccc(C(=O)O)c(N)c3)c(=O)[nH]c2c1 [Compound 27, 4-[(7-methoxy-2,4(1H,3H)-quinazolinedion-3-yl)sulfonyl]anthranilic acid] | –
12 | 0.36 | CS(=O)(=O)O.Nc1cccc(S(=O)(=O)n2c(=O)[nH]c3cc(Cl)ccc3c2=O)c1 [Compound 34, 3-(3-aminobenzenesulfonyl)-7-chloro-2,4-(1H,3H)quinazolinedion methanesulfonic acid salt] | effect on the increase of the amount of hydroxyproline in the lung ([1]; 10 mg/kg i.p. once a day): little effect; rate of suppression of the increase of the amount of hydroxyproline in the lung ([1]; 50 mg/kg i.p. once a day): about 46%
13 | 0.3 | CC(C(=O)O)C(=O)Nc1cccc(S(=O)(=O)n2c(=O)[nH]c3cc(Cl)ccc3c2=O)c1 (stereo not shown) [Compound 13, 2-{3-[(7-chloro-2,4(1H,3H)-quinazolinedion-3-yl)sulfonyl]phenylaminocarbonyl}propionic acid] | –
14 | 0.17 | Cc1ccc(S(=O)(=O)n2c(=O)[nH]c3cc(Cl)ccc3c2=O)cc1N [Compound 10, 3-(3-amino-4-methylbenzenesulfonyl)-7-chloro-2,4(1H,3H)-quinazolinedione] | –
15 | 0.14 | Nc1ccccc1S(=O)(=O)n1c(=O)[nH]c2cc(Cl)ccc2c1=O [Compound 2, 3-(2-aminobenzenesulfonyl)-7-chloro-2.4(1H,3H)-quinazolinedione] | –
16 | 0.14 | Nc1cc(S(=O)(=O)n2c(=O)[nH]c3cc(Cl)ccc3c2=O)ccc1C(=O)[O-].[Na+] [Compound 18, 4-[(7-chloro-2,4(1H,3H)-quinazolinedion-3-yl)sulfonyl]anthranilic acid monosodium salt] | thickness of the subcutaneous fibrous layer, % of that for the group administered saline (Tsk mice): about 60%; inhibition of chymase activity in the intestines compared with the group administered saline (chymase; small intestines): approximately 80%; inhibition of chymase activity in the tongue, back skin, and legs (chymase; tongue, back skin, legs): about 50%; skin chymase activity, % of that of the group administered saline (skin chymase): 57%
17 | 0.035 | Nc1cc(S(=O)(=O)n2c(=O)[nH]c3cc(Cl)ccc3c2=O)ccc1Cl [Compound 8, 3-(3-amino-4-chlorobenzenesulfonyl)-7-chloro-2,4(1H,3H)-quinazolinedione] | –
